Data: ChEMBL document CHEMBL5046281, “N-Aryl Mercaptopropionamides as Broad-Spectrum Inhibitors of Metallo-β-Lactamases” (J Med Chem, 2022)
Activity calls are given as the source filed them. The calls are words filed in the database; no cut-off is given here.

Assays:
Escherichia coli [1] = experiment: Potentiation of imipenem-induced antibacterial activity against NDM-1 producing Escherichia coli assessed as fold change in imipenem MIC at 128 ug/ml by microdilution method; type: functional; settings: dose 128 µg/ml
Klebsiella pneumoniae [2] = experiment: Synergistic antibacterial activity against NDM-1-producing Klebsiella pneumoniae T2301 clinical isolate assessed as fractional inhibitory concentration index in presence of imipenem by microdilution checkerboard assay; type: functional
Escherichia coli [3] = experiment: Potentiation of imipenem-induced antibacterial activity against KPC-2 producing Escherichia coli T2435 clinical isolates assessed as imipenem MIC at 128 mg/l by microdilution method; type: functional
Klebsiella pneumoniae [4] = experiment: Selectivity ratio of MIC for antibacterial activity against NDM-1 producing Klebsiella pneumoniae T2301 clinical isolates to MIC for potentiation of imipenem-induced antibacterial activity against NDM-1 producing Klebsiella pneumoniae T2301 clinical isolates assessed as imipenem MIC at 128 mg/l
[5] = target: Stromelysin-1 (Homo sapiens) (UniProt P08254); experiment: Inhibition of human MMP-3 at 100 uM relative to control
Stromelysin-1 (Homo sapiens), sequence (P08254 100-477 limits assumed): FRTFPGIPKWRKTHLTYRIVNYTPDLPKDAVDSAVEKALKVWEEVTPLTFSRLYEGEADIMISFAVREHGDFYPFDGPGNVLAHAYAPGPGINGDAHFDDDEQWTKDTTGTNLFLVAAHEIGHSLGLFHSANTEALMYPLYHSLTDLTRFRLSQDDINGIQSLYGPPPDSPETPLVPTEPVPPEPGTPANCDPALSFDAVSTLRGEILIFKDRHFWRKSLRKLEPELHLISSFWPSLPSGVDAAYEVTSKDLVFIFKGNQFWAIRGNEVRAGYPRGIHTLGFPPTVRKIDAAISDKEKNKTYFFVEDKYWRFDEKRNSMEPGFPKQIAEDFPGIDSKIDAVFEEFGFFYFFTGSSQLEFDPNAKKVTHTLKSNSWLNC

Escherichia coli [6] = experiment: Potentiation of imipenem-induced antibacterial activity against NDM-1 producing Escherichia coli assessed as imipenem MIC at 32 ug/ml by microdilution method (reference value: 128 ug/ml); type: functional; settings: dose 32 µg/ml
Escherichia coli [7] = experiment: Potentiation of imipenem-induced antibacterial activity against NDM-1 producing Escherichia coli assessed as imipenem MIC at 2 ug/ml by microdilution method (reference value: 128 ug/ml); type: functional; settings: dose 2 µg/ml
Klebsiella pneumoniae [8] = experiment: Antibacterial activity against imipenem-resistant NDM-1-producing Klebsiella pneumoniae T2301 at 128 mg/L measured after 24 hrs in presence of imipenem by time-kill assay; type: functional, organism-based
[9] = Inhibition of Escherichia coli IMP-7 using fluorocillin as substrate incubated for 30 mins by fluorescence based assay
[10] = Selectivity ratio of MIC for antibacterial activity against KPC-2 producing Escherichia coli T2435 clinical isolates to MIC for potentiation of imipenem-induced antibacterial activity against KPC-2 producing Escherichia coli T2435 clinical isolates assessed as imipenem MIC at 128 mg/l; type: functional
[11] = Selectivity ratio of MIC for antibacterial activity against VIM-1 producing Pseudomonas aeruginosa T2357 clinical isolates to MIC for potentiation of imipenem-induced antibacterial activity against VIM-1 producing Pseudomonas aeruginosa T2357 clinical isolates assessed as imipenem MIC at 128 mg/l; type: functional
[12] = Selectivity ratio of MIC for antibacterial activity against NDM-5 producing Escherichia coli T2351 clinical isolates to MIC for potentiation of imipenem-induced antibacterial activity against NDM-5 producing Escherichia coli T2351 clinical isolates assessed as imipenem MIC at 128 mg/l; type: functional
Escherichia coli [13] = experiment: Potentiation of imipenem-induced antibacterial activity against NDM-1 producing Escherichia coli assessed as imipenem MIC at 16 ug/ml by microdilution method (reference value: 128 ug/ml); type: functional; settings: dose 16 µg/ml
Escherichia coli [14] = experiment: Antibacterial activity against NDM-1 expressing Escherichia coli isolates assessed as inhibition of bacterial growth by microdilution method; type: functional, organism-based
[15] = target: T1, Matrix metalloproteinase-14 (Homo sapiens, UniProt P50281); experiment: Inhibition of human MMP-14 at 100 uM relative to control
[16] = Selectivity ratio of MIC for antibacterial activity against IMP-1 producing Pseudomonas aeruginosa T2325 clinical isolates to MIC for potentiation of imipenem-induced antibacterial activity against IMP-1 producing Pseudomonas aeruginosa T2325 clinical isolates assessed as imipenem MIC at 128 mg/l; type: functional
Klebsiella pneumoniae [17] = experiment: Antibacterial activity against imipenem-resistant NDM-1-producing Klebsiella pneumoniae T2301 infected in Galleria mellonella larvae assessed as survival rate at 38.4 ug injected via proleg measured after 3 days in presence of imipenem by Kaplan-Meier method; type: functional; settings: dose 38.4 µg; time 3 day
Escherichia coli [18] = experiment: Potentiation of imipenem-induced antibacterial activity against NDM-1 producing Escherichia coli assessed as imipenem MIC at 4 ug/ml by microdilution method (reference value: 128 ug/ml); type: functional; settings: dose 4 µg/ml
Escherichia coli [19] = experiment: Potentiation of imipenem-induced antibacterial activity against NDM-1 producing Escherichia coli assessed as fold change in imipenem MIC at 8 ug/ml by microdilution method; type: functional; settings: dose 8 µg/ml
Serratia marcescens = experiment: Potentiation of imipenem-induced antibacterial activity against NDM-1 producing Serratia marcescens T2352 clinical isolates assessed as imipenem MIC at 128 mg/l by microdilution method; type: functional
Escherichia coli [20] = experiment: Potentiation of imipenem-induced antibacterial activity against NDM-1 producing Escherichia coli assessed as fold change in imipenem MIC at 16 ug/ml by microdilution method; type: functional; settings: dose 16 µg/ml
Klebsiella pneumoniae [21] = experiment: Potentiation of imipenem-induced antibacterial activity against NDM-1 producing Klebsiella pneumoniae T2301 clinical isolates assessed as imipenem MIC at 128 mg/l by microdilution method; type: functional
[22] = Selectivity ratio of MIC for antibacterial activity against NDM-1 producing Enterobacter cloacae T2311 clinical isolates to MIC for potentiation of imipenem-induced antibacterial activity against NDM-1 producing Enterobacter cloacae T2311 clinical isolates assessed as imipenem MIC at 128 mg/l; type: functional
Escherichia coli [23] = experiment: Antibacterial activity against IMP-1 expressing Escherichia coli isolates assessed as inhibition of bacterial growth by microdilution method; type: functional, organism-based
Escherichia coli [24] = experiment: Potentiation of imipenem-induced antibacterial activity against NDM-1 producing Escherichia coli assessed as fold change in imipenem MIC at 2 ug/ml by microdilution method; type: functional; settings: dose 2 µg/ml
Pseudomonas aeruginosa [25] = experiment: Antibacterial activity against VIM-2 expressing Pseudomonas aeruginosa isolates assessed as inhibition of bacterial growth by microdilution method; type: functional, organism-based
Pseudomonas aeruginosa [26] = experiment: Inhibition of Pseudomonas aeruginosa quorum sensing system LasB at 100 uM
[27] = Inhibition of Escherichia coli NDM-1 using fluorocillin as substrate incubated for 30 mins by fluorescence based assay
[28] = Selectivity ratio of MIC for antibacterial activity against VIM-1 producing Enterobacter cloacae T2353 clinical isolates to MIC for potentiation of imipenem-induced antibacterial activity against VIM-1 producing Enterobacter cloacae T2353 clinical isolates assessed as imipenem MIC at 128 mg/l; type: functional
[29] = target: T1, Matrix metalloproteinase-14; experiment: Inhibition of human MMP-14
Pseudomonas aeruginosa [30] = experiment: Potentiation of imipenem-induced antibacterial activity against IMP-1 producing Pseudomonas aeruginosa T2325 clinical isolates assessed as imipenem MIC at 128 mg/l by microdilution method; type: functional
HepG2 = experiment: Cytotoxicity against human HepG2 cells assessed as reduction in cell viability at 100 uM relative to control; type: toxicity, cell-based; settings: hepg2, 100 µM
Escherichia coli [31] = experiment: Potentiation of imipenem-induced antibacterial activity against NDM-1 producing Escherichia coli assessed as imipenem MIC at 8 ug/ml by microdilution method (reference value: 128 ug/ml); type: functional; settings: dose 8 µg/ml
Acinetobacter baumannii = experiment: Potentiation of imipenem-induced antibacterial activity against OXA-23 producing Acinetobacter baumannii T2434 clinical isolates assessed as imipenem MIC at 128 mg/l by microdilution method; type: functional
Escherichia coli [32] = experiment: Potentiation of imipenem-induced antibacterial activity against NDM-7 producing Escherichia coli T2239 clinical isolates assessed as imipenem MIC at 128 mg/l by microdilution method; type: functional

With O=C(CCS)Nc1cccc(C(=O)O)c1 the “fold change (FC)” value (Escherichia coli [1]) was 256, the “fractional inhibitory concentration index (FICI)” value (Klebsiella pneumoniae [2]) was 0.25 and the MIC (Escherichia coli [3]) was 4 µg/mL. For the same compound, the Ratio (Klebsiella pneumoniae [4]) was 32, the inhibition [5] was under 10% and the MIC (Escherichia coli [6]) was 8 µg/mL. For the same compound, the MIC (Escherichia coli [7]) was 128 µg/mL, the Activity (Klebsiella pneumoniae [8]) was “Active” and the IC50 [9] was 6.4 µM. It also gave a Ratio [10] of 1, a Ratio [11] of 1 and a Ratio [12] of 4. The MIC (Escherichia coli [13]) was 64 µg/mL, the Activity (Escherichia coli [14]) was “inactive” and the inhibition [15] was 61%. For the same compound, the Ratio [16] was 1, the Activity (Klebsiella pneumoniae [17]) was “<=56%” and the MIC (Escherichia coli [18]) was 128 µg/mL. The “fold change (FC)” value (Escherichia coli [19]) was 2, the MIC (Serratia marcescens) was 4 µg/mL and the “fold change (FC)” value (Escherichia coli [20]) was 2. For the same compound, the MIC (Klebsiella pneumoniae [21]) was 0.5 µg/mL, the Ratio [22] was 8 and the Activity (Escherichia coli [23]) was “inactive”. For the same compound, the “fold change (FC)” value (Escherichia coli [24]) was 1, the Activity (Pseudomonas aeruginosa [25]) was “inactive” and the inhibition (Pseudomonas aeruginosa [26]) was “Active”. For the same compound, the IC50 [27] was 4 µM, the Ratio [28] was 2 and the IC50 [29] was 68 µM. For the same compound, the MIC (Pseudomonas aeruginosa [30]) was 16 µg/mL, the Activity (HepG2) was under 10% and the MIC (Escherichia coli [31]) was 64 µg/mL. The MIC (Acinetobacter baumannii) was 32 µg/mL and the MIC (Escherichia coli [32]) was 2 µg/mL.
